Here are results for one molecule from paper PMC11176561 (Computational and Structural Biotechnology Journal, 2024).

For the test, the system named is ceftazidime-resistant E. coli E24. Description: E. coli-induced mouse bacteremia.
Setting [1] is: ceftazidime 5 mg/kg i.p., 8 h of drug treatment.

As for `CC(C)(O/N=C(\C(=O)N[C@@H]1C(=O)N2C(C(=O)[O-])=C(C[n+]3ccccc3)CS[C@H]12)c1csc(N)n1)C(=O)O` [Ceftazidime], for the setting “ceftazidime 5 mg/kg i.p. 2 h after i.p. E. coli E24”, the “loss of mice (mortality)” value is on record as 85.7%. Also, under setting [1], the “bacterial load in the blood” value is on record as “approximately 1 × 10^9 CFU/ml”; the “bacterial load in the lung, liver, spleen, and kidney tissues” value is “approximately 1 × 10^9 CFU/g”.
